# Like-named read-outs stand apart in the source and are kept apart here. Non-standard residues stand in square brackets, D forms with d. Residues, ends and D or L forms follow the SMILES beside them.
# Assays:
# Shigella sonnei = experiment: microbe, parasite or virus in culture; type: cell-based; conditions: Shigella sonnei strains 51592
# Procedure, shortened: (§1)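 Growth on drug-containing MH agar plates is read after 18 hours at 35° C to give the minimum inhibitory concentration. Two-fold drug series runs from 0.03 to 128 μg/ml; spots carry 10^4CFU each.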
# [1] = system: Acinetobacter calcoaceticus; experiment: microbe, parasite or virus in culture; type: cell-based; conditions: Acinetobacter calcoaceticus25001
# Procedure, shortened: as §1
# Feilaoti citrobacter = experiment: microbe, parasite or virus in culture; type: cell-based; conditions: Feilaoti citrobacter 48001
# Procedure, shortened: as §1
# Serratia marcescens = experiment: microbe, parasite or virus in culture; type: cell-based; conditions: Serratia marcescens 41002
# Procedure, shortened: as §1
# Escherichia coli = experiment: microbe, parasite or virus in culture; type: cell-based
# Procedure, shortened: (§2)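 Testing covers laboratory standard strains and clinical isolates, resistant bacteria among them, with ATCC quality-control strains. Each is multipoint-inoculated at 10^4CFU/point onto MH agar holding two-fold drug dilutions (0.03–128 μg/ml) and incubated 18 hours at 35° C.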
# Enterobacter aerogenes = experiment: microbe, parasite or virus in culture; type: cell-based; conditions: Enterobacter aerogenes 45102
# Procedure, shortened: as §1
# klebsiella pneumoniae = experiment: microbe, parasite or virus in culture; type: cell-based
# Procedure, shortened: as §2
# Salmonella typhimurium = experiment: microbe, parasite or virus in culture; type: cell-based; conditions: Salmonella typhimurium
# Procedure, shortened: as §1
# Pseudomonas aeruginosa = experiment: microbe, parasite or virus in culture; type: cell-based
# Procedure, shortened: as §2
# Typhoid bacillus H901 = experiment: microbe, parasite or virus in culture; type: cell-based
# Procedure, shortened: as §1
# Staphylococcus aureus = experiment: microbe, parasite or virus in culture; type: cell-based
# Procedure, shortened: as §2
# Enterobacter cloacae = experiment: microbe, parasite or virus in culture; type: cell-based; conditions: Enterobacter cloacae 45301
# Procedure, shortened: as §1
# Shigella = experiment: microbe, parasite or virus in culture; type: cell-based
# Procedure, shortened: as §1
# [2] = system: Staphylococcus epidermidis; experiment: microbe, parasite or virus in culture; type: cell-based
# Procedure, shortened: as §2
# Shigella flexneri = experiment: microbe, parasite or virus in culture; type: cell-based
# Procedure, shortened: as §1
# Proteus vulgaris = experiment: microbe, parasite or virus in culture; type: cell-based; conditions: Proteus vulgaris 56
# Procedure, shortened: as §1
# Enterococcus faecalis = experiment: organism not typed; type: cell-based; conditions: read-out: MIC
# Procedure: The experimental strains are 37 standard strains preserved in lab and clinical isolated bacteria, including drug-resistant bacteria and quality-control bacteria selecting Staphylococcus aureus ATCC29213, Enterococcus faecalis ATCC29212, Escherichia coli ATCC25922, Pseudomonas aeruginosa ATCC27853 and klebsiella pneumoniae ATCC700603.
# (1) Sensitivity test is conducted with two-fold agar dilution method and Denlay multipoint inoculator. Test bacteria are cultured with nutrient broth and brain heart infusion.
# (2) The drug is double diluted into different concentration with MH broth after dissolved and then placed in the plate respectively.
# (4) After solidification of the culture medium in the plate, test bacteria (10^4CFU/point) are inoculated by multipoint inoculator and cultured for 18 hours at constant 35° C. Then observe the results.
# [3] = RP-HPLC temperature profiling: hydrophobicity and self-association; type: physicochemical
# Procedure, shortened: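 Zorbax 300 SB-C8 column, linear AB gradient 1% acetonitrile/min at 1 ml/min, 0.05% aqueous TFA (pH 2) versus 0.05% TFA in acetonitrile. Retention times followed from 5 to 80° C and normalized to random-coil control peptide C. Self-association parameter PA = maximal (tR^t−tR^5 peptide)−(tR^t−tR^5 peptide C).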
# [4] = 08-2 (ESBLs) (listed under klebsiella pneumoniae)
# [5] = klebsiella pneumoniae ATCC700603
# [6] = strain 7 (listed under klebsiella pneumoniae)
# [7] = Pseudomonas aeruginosa TCC27853
# [8] = strain 17 (listed under Pseudomonas aeruginosa)
# [9] = 08-49(MSSA) Meticillin susceptible staphylococcus aureus
# [10] = 08-52(MRSA) Methicillin-resistant staphylococcus aureus
# [11] = Staphylococcus aureus ATCC25923
# [12] = Staphylococcus aureus ATCC29213
# [13] = strain 15 (listed under Staphylococcus aureus)
# [14] = 08-17 (MSSE) Meticillin susceptible staphylococcus epidermidis
# [15] = 08-18 (MRSE) Methicillin-resistant staphylococcus epidermidis
# [16] = (MRSE) Methicillin-resistant Staphylococcus epidermidis ATCC12228
# [17] = 06-71 (VRE) Vancomycin-resistant Enterococci
# [18] = Enterococcus faecalis ATCC29212
# [19] = HH22* (AMEs) Aminoglycoside-modifying enzyme
# [20] = strain 06-7 (listed under Enterococcus faecalis)
Compound,MIC (Shigella sonnei),MIC [1],MIC (Feilaoti citrobacter),MIC (Serratia marcescens),MIC (Escherichia coli; 272(TEM-88)),MIC (Escherichia coli; 274 (TEM-15)),MIC (Escherichia coli; 276 (TEM-52)),MIC (Enterobacter aerogenes),MIC (klebsiella pneumoniae; [4]),MIC (klebsiella pneumoniae; [5]),MIC (klebsiella pneumoniae; [6]),MIC (Salmonella typhimurium),MIC (Pseudomonas aeruginosa; [7]),MIC (Pseudomonas aeruginosa; [8]),MIC (Typhoid bacillus H901),MIC (Staphylococcus aureus; [9]),MIC (Staphylococcus aureus; [10]),MIC (Staphylococcus aureus; [11]),MIC (Staphylococcus aureus; [12]),MIC (Staphylococcus aureus; [13]),other results
CC[C@@H](C)[C@@H](NC(=O)[C@@H](CCCCN)NC(=O)[C@@H](CO)NC(=O)[C@@H](Cc1ccccc1)NC(=O)[C@@H](CC(C)C)NC(=O)[C@@H](CCCCN)NC(=O)[C@@H](CCC(=O)O)NC(=O)[C@@H](CC(C)C)NC(=O)[C@@H](CCCNC(=N)N)NC(=O)[C@@H](CCCCN)NC(=O)[C@@H](Cc1ccccc1)NC(C)=O)C(=O)N[C@H](Cc1c[nH]c2ccccc12)C(=O)N[C@H](CC(N)=O)C(=O)N[C@H](Cc1c[nH]c2ccccc12)C(=O)N[C@H](CCCCN)C(N)=O [PL-17] (Ac-[dF][dK][dR][dL][dE][dK][dL][dF][dS][dK][dI][dW][dN][dW][dK]-NH2),0.3 µM,1.3 µM,2.7 µM,1.3 µM,0.3 µM,0.3 µM,0.7 µM,1.3 µM,0.3 µM,2.7 µM,0.3 µM,1.3 µM,1.3 µM,2.7 µM,0.7 µM,0.7 µM,5.3 µM,0.3 µM,0.3 µM,0.3 µM,"MIC (Enterobacter cloacae): 1.3 µM; MIC (Shigella): 0.3 µM; MIC [2, 14]: 1.0 µM; MIC [2, 15]: 1.0 µM; MIC [2, 16]: 1.0 µM; MIC (Shigella flexneri): 0.3 µM; MIC (Proteus vulgaris): 5.3 µM; MIC (Enterococcus faecalis; [17]): 1.7 µM; MIC (Enterococcus faecalis; [18]): 5.3 µM; MIC (Enterococcus faecalis; [19]): 10.7 µM; MIC (Enterococcus faecalis; [20]): 5.3 µM"
Ac-FKRLEKLFSKIWNWK-NH2 [PL-12],2.7 µM,0.03 µM,5.3 µM,0.03 µM,0.7 µM,1.3 µM,1.3 µM,0.03 µM,5.3 µM,2.7 µM,5.3 µM,5.3 µM,5.3 µM,2.7 µM,5.3 µM,0.7 µM,1.3 µM,1.3 µM,1.3 µM,1.3 µM,"MIC (Enterobacter cloacae): 0.3 µM; MIC (Shigella): 1.7 µM; MIC [2, 14]: 2.7 µM; MIC [2, 15]: 1.3 µM; MIC [2, 16]: 1.3 µM; MIC (Shigella flexneri): 2.7 µM; MIC (Proteus vulgaris): 0.3 µM; MIC (Enterococcus faecalis; [17]): 0.3 µM; MIC (Enterococcus faecalis; [18]): 1.3 µM; MIC (Enterococcus faecalis; [19]): 0.3 µM; MIC (Enterococcus faecalis; [20]): 5.3 µM; Hydrophobicity tR5 ([3]; retention time in RP-HPLC at pH 2, 5° C.): 38.04 min; Hydrophobicity tR80 ([3]; retention time in RP-HPLC at pH 2, 80° C.): 36.10 min"

# From patent publication US9273095B2, “Antibiotic peptide and preparation method therefor and application therefor” (priority 2011, dated 2016)
